Source: PubChem BioAssay AID330 (DTP/NCI, 2004)
Where “and” joins values, the source holds several entries; their conditions need not be identical. Equal entries are not always repeated. Toxic doses and inconclusive results are not listed. Rule for the calls: active = survival T/C of 150% or more; inactive = T/C below 125% in these data.

Test system: P388 leukemia ip, CD2F1 mice, survival T/C
Test: NCI In Vivo Anticancer Drug Screen. Data for tumor model P388 Leukemia (intraperitoneal) in CD2F1 (CDF1) mice
Settings: endpoint: median survival time, higher = longer survival
Procedure, shortened: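 Mice carrying the transplanted tumor received test compound or vehicle. Survival was recorded in each group, and the value is the treated-group measurement divided by that of the vehicle-treated control group.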

[1] = dose: 60.0 mg/kg/injection, schedule: Q01DX005 (ip), vehicle: saline with Tween-80
[2] = dose: 120.0 mg/kg/injection, schedule: Q01DX005 (ip), vehicle: saline with Tween-80
[3] = dose: 240.0 mg/kg/injection, schedule: Q01DX005 (ip), vehicle: saline with Tween-80
[4] = dose: 100.0 mg/kg/injection, schedule: Q01DX001 (ip), vehicle: saline
[5] = dose: 200.0 mg/kg/injection, schedule: Q01DX001 (ip), vehicle: saline
[6] = dose: 400.0 mg/kg/injection, schedule: Q01DX001 (ip), vehicle: saline
[7] = dose: 50.0 mg/kg/injection, schedule: Q01DX005 (ip), vehicle: saline with Tween-80
[8] = dose: 50.0 mg/kg/injection, schedule: Q01DX005 (ip), vehicle: Klucel (hydroxypropylcellulose) (HPC)
[9] = dose: 100.0 mg/kg/injection, schedule: Q01DX005 (ip), vehicle: Klucel (hydroxypropylcellulose) (HPC)
[10] = dose: 200.0 mg/kg/injection, schedule: Q01DX005 (ip), vehicle: Klucel (hydroxypropylcellulose) (HPC)
[11] = dose: 100.0 mg/kg/injection, schedule: Q01DX005 (ip), vehicle: saline with Tween-80

Measured: T/C

CC(=N)c1ccc(C)cc1
inactive: dose: 6.25 mg/kg/injection, schedule: Q01DX009 (ip), vehicle: saline with Tween-80 90 % of control | dose: 6.25 mg/kg/injection, schedule: Q04DX003 (ip), vehicle: saline with Tween-80 100 % of control | dose: 12.5 mg/kg/injection, schedule: Q01DX009 (ip), vehicle: saline with Tween-80 90 % of control | dose: 12.5 mg/kg/injection, schedule: Q04DX003 (ip), vehicle: saline with Tween-80 95 % of control | dose: 25.0 mg/kg/injection, schedule: Q01DX009 (ip), vehicle: saline with Tween-80 104 % of control | dose: 25.0 mg/kg/injection, schedule: Q04DX003 (ip), vehicle: saline with Tween-80 100 % of control

CC(=O)OC1CC(OC(C)=O)C2(C)CC3=C(O)C(=O)OC3CC(C)C12 (stereo not given)
inactive: dose: 100.0 mg/kg/injection, schedule: Q04DX002 (ip), vehicle: saline with Tween-80 97 % of control | dose: 200.0 mg/kg/injection, schedule: Q04DX002 (ip), vehicle: saline with Tween-80 101 % of control

Cc1ccc(NC(=O)/C=C2\CONC(c3ccccc3)=N2)cc1
inactive: [1] 91 % of control | [2] 91 % of control

CC(C)(C)OC(=O)C(CC(=O)O)=C(c1ccccc1)c1ccccc1
inactive: dose: 100.0 mg/kg/injection, schedule: Q01DX009 (ip), vehicle: Klucel (hydroxypropylcellulose) (HPC) 100 % of control | dose: 200.0 mg/kg/injection, schedule: Q01DX009 (ip), vehicle: Klucel (hydroxypropylcellulose) (HPC) 100 % of control | dose: 400.0 mg/kg/injection, schedule: Q01DX009 (ip), vehicle: Klucel (hydroxypropylcellulose) (HPC) 95 % of control

O=C(O)c1ccc(N/N=C/C(F)(F)F)cc1
inactive: dose: 60.0 mg/kg/injection, schedule: Q01DX005 (ip), vehicle: saline + Tween-80 + alcohol 96 % of control | dose: 120.0 mg/kg/injection, schedule: Q01DX005 (ip), vehicle: saline + Tween-80 + alcohol 94 % of control | dose: 240.0 mg/kg/injection, schedule: Q01DX005 (ip), vehicle: saline + Tween-80 + alcohol 102 % of control

CC(=O)/C(=C\C=C\c1ccccc1)C(=O)CCN(C)C
inactive: dose: 50.0 mg/kg/injection, schedule: Q01DX005 (ip), vehicle: saline 98 % of control | dose: 100.0 mg/kg/injection, schedule: Q01DX005 (ip), vehicle: saline 109 % of control | dose: 200.0 mg/kg/injection, schedule: Q01DX005 (ip), vehicle: saline 118 % of control

COc1cc(O)c(C/C=C/c2ccccc2)cc1O
inactive: dose: 2.5 mg/kg/injection, schedule: Q01DX009 (ip), vehicle: saline with Tween-80 102 % of control | dose: 5.0 mg/kg/injection, schedule: Q01DX009 (ip), vehicle: saline with Tween-80 105 % of control | dose: 10.0 mg/kg/injection, schedule: Q01DX009 (ip), vehicle: saline with Tween-80 103 % of control

CC1(C)OCC(N)[C@@H](O)CO1 (stereo not given in full)
inactive: dose: 60.0 mg/kg/injection, schedule: Q01DX005 (ip), vehicle: saline 100 % of control | dose: 120.0 mg/kg/injection, schedule: Q01DX005 (ip), vehicle: saline 96 % of control | dose: 240.0 mg/kg/injection, schedule: Q01DX005 (ip), vehicle: saline 100 % of control

COC(=O)C1(CC(=O)c2ccc(Cl)cc2)NC(=S)NC(=O)C1C#N (stereo not given)
inactive: [1] 99 % of control | [2] 98 % of control | [3] 106 % of control

CC(=O)OC1CCC2C3CCC4=C/C(=N/NC(=S)Nc5ccccc5)CCC4(C)C3CCC12C (stereo not given)
inactive: [4] 101 % of control | [5] 101 % of control | [6] 100 % of control

O=C1c2ccccc2C(=O)c2c(NCCN3CCNCC3)ccc(NCCN3CCNCC3)c21
inactive: dose: 4.0 mg/kg/injection, schedule: Q01DX009 (ip), vehicle: acid diluted with saline 103 % of control | dose: 8.0 mg/kg/injection, schedule: Q01DX009 (ip), vehicle: acid diluted with saline 109 % of control | dose: 12.5 mg/kg/injection, schedule: Q01DX009 (ip), vehicle: water 107 % of control | dose: 16.0 mg/kg/injection, schedule: Q01DX009 (ip), vehicle: acid diluted with saline 120 % of control | dose: 50.0 mg/kg/injection, schedule: Q01DX009 (ip), vehicle: water 123 % of control

CN(C)CCCCNc1ccc(NCCCCN(C)C)c2c1C(=O)c1c(O)ccc(O)c1C2=O
inactive: dose: 12.5 mg/kg/injection, schedule: Q01DX009 (ip), vehicle: saline 100 % of control | dose: 25.0 mg/kg/injection, schedule: Q01DX009 (ip), vehicle: saline 108 % of control | dose: 50.0 mg/kg/injection, schedule: Q01DX009 (ip), vehicle: saline 106 % of control

CN1CCC(O)(c2nccc3ccccc23)CC1
inactive: dose: 50.0 mg/kg/injection, schedule: Q01DX001 (ip), vehicle: Klucel (hydroxypropylcellulose) (HPC) 111 % of control | dose: 100.0 mg/kg/injection, schedule: Q01DX001 (ip), vehicle: Klucel (hydroxypropylcellulose) (HPC) 96 % of control

CCCCCCCCCCCCNC(=O)C[n+]1cccc(C(=O)Nc2ccccc2)c1
inactive: dose: 3.0 mg/kg/injection, schedule: Q01DX009 (ip), vehicle: saline with Tween-80 100 % of control | dose: 6.0 mg/kg/injection, schedule: Q01DX009 (ip), vehicle: saline with Tween-80 104 % of control | dose: 12.0 mg/kg/injection, schedule: Q01DX009 (ip), vehicle: saline with Tween-80 95 % of control

COc1ccc(N2C(=O)CC(c3cc(C)ccc3OC)CC2=O)cc1
inactive: [4] 98 % of control | [5] 98 % of control | [6] 91 % of control

CN(C)CCNc1ccc(O)c2sc3ccccc3c(=O)c12
inactive: dose: 100.0 mg/kg/injection, schedule: Q04DX003 (ip), vehicle: saline with Tween-80 94 % of control | dose: 200.0 mg/kg/injection, schedule: Q04DX003 (ip), vehicle: saline with Tween-80 90 % of control

NNC(=O)C1C2c3ccccc3C(c3ccccc32)C1C(=O)O (stereo not given)
inactive: [1] 99 % of control | [2] 101 % of control | [3] 103 % of control

O=C1CN(c2cccc(C(F)(F)F)c2)C(=O)CN1/N=C/c1ccco1
inactive: dose: 12.5 mg/kg/injection, schedule: Q01DX005 (ip), vehicle: saline with Tween-80 100 % of control | dose: 25.0 mg/kg/injection, schedule: Q01DX005 (ip), vehicle: saline with Tween-80 105 % of control | [7] 99 % of control and 100 % of control

COc1cc(CO)ccc1O
inactive: dose: 100.0 mg/kg/injection, schedule: Q01DX009 (ip), vehicle: saline 102 % of control and 105 % of control | dose: 200.0 mg/kg/injection, schedule: Q01DX009 (ip), vehicle: saline 89 % of control and 93 % of control | dose: 400.0 mg/kg/injection, schedule: Q01DX009 (ip), vehicle: saline 99 % of control and 104 % of control | dose: 600.0 mg/kg/injection, schedule: Q01DX009 (ip), vehicle: saline 107 % of control and 89 % of control

O=C1/C(=C/c2ccc(O)cc2)CCC/C1=C\c1ccc(O)cc1
inactive: [1] 97 % of control | [2] 93 % of control | [3] 92 % of control

C1=C(c2ccccc2)SC(N2CCCCC2)S1 (stereo not given)
inactive: dose: 12.5 mg/kg/injection, schedule: Q01DX009 (ip), vehicle: distilled water + Tween-80 99 % of control | dose: 25.0 mg/kg/injection, schedule: Q01DX009 (ip), vehicle: distilled water + Tween-80 99 % of control | dose: 50.0 mg/kg/injection, schedule: Q01DX009 (ip), vehicle: distilled water + Tween-80 96 % of control | dose: 100.0 mg/kg/injection, schedule: Q01DX009 (ip), vehicle: distilled water + Tween-80 104 % of control | dose: 200.0 mg/kg/injection, schedule: Q01DX009 (ip), vehicle: distilled water + Tween-80 112 % of control

CN(C)Cc1nsc(N(C)C)n1
inactive: [8] 100 % of control | [9] 97 % of control | [10] 93 % of control

CCC#CCN(CCCC)CCCC
inactive: [7] 106 % of control | [11] 103 % of control

Cc1ccc(S(=O)(=O)C(C)(C)C(O)c2ccccc2)cc1 (stereo not given)
inactive: [7] 100 % of control | [11] 99 % of control | dose: 200.0 mg/kg/injection, schedule: Q01DX005 (ip), vehicle: saline with Tween-80 92 % of control

CCN(CC)CCOC(=O)Cc1cc(C)cc2c(=O)cc(-c3ccccc3)oc12
inactive: [8] 97 % of control | [9] 102 % of control | [10] 101 % of control

O=C(CCCC(=O)Nc1cccc2[nH]c3ccccc3c(=O)c12)Nc1cccc2[nH]c3ccccc3c(=O)c12
inactive: [1] 100 % of control | [2] 88 % of control | [3] 100 % of control
